From patent US20230083973A1, “SUBSTITUTED CYCLOPROPYL-2,2'-BIP[…], ANALOGUES THEREOF, AND METHODS USING SAME” (priority 2019, published 2023)

System: HBsAg
Assay: HBsAg assay: inhibition of HBsAg in HepG2.2.15 cells (chemiluminescence immunoassay of supernatant)
Type: cell-based, hepatitis B virus
Settings: Hepatitis B virus, HepG2.2.15, 144 h, read-out: sAg EC50, HepG2.2.15 cells; HBsAg in supernatant at day 6 after exposure to compound; 0.5% DMSO
Procedure, shortened: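 HepG2.2.15 cells treated with serially diluted compounds (0.5% DMSO), medium and compound refreshed after 2–3 days, supernatant harvested at day 6. Secreted HBsAg measured by chemiluminescence immunoassay; EC50 from dose-response curves, with parallel CellTiter-Glo viability at 5,000 cells/well.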

| Structure (SMILES) | EC50 [µM] |
| --- | --- |
| CO[C@@H]1CCN(c2cc(C3CC3c3cnc(-c4ncccn4)nc3)cc(Cl)c2F)C1 (single isomer, unassigned) [Example 110] | 0.19 |
| CCc1cc(F)c(OC)cc1C1CC1c1cnc(-c2ncccn2)nc1 (single isomer, unassigned) [Example 35, trans-5-(2-(2-Ethyl-4-fluoro-5-methoxyphenyl)cyclopropyl)-2,2′-bipyrimidine] | 0.55 |

Same assay, conditions: read-out: sAg EC50; HepG2.2.15 cells; HBsAg in supernatant at day 6 after exposure to compound; 0.5% DMSO

| Structure (SMILES) | EC50 [µM] |
| --- | --- |
| COCCOc1ccc(C2CC2c2cnc(-c3ncccn3)nc2)cc1F (single isomer, unassigned) [Example 24, trans-5-(2-(3-Fluoro-4-(2-methoxyethoxy)phenyl)cyclopropyl)-2,2′-bipyrimidine] | 0.15 |
| COc1cc(C2CC2c2cnc(-c3ncccn3)nc2)c(C)cc1Cl (single isomer, unassigned) [Example 51, trans-5-(2-(4-Chloro-5-methoxy-2-methylphenyl)cyclopropyl)-2,2′-bipyrimidine] | 0.29 |
| COCCOc1cc(C2CC2c2cnc(-c3ncccn3)nc2)ccc1F (single isomer, unassigned) [Example 22, trans-5-(2-(4-Fluoro-3-(2-methoxyethoxy)phenyl)cyclopropyl)-2,2′-bipyrimidine] | 0.059 |
| Cc1cc(C2CC2c2cnc(-c3ncccn3)nc2)cc(OCC2CC2)c1Cl (single isomer, unassigned) [Example 49, trans-5-((2-(4-Chloro-3-(cyclopropylmethoxy)-5-methylphenyl)cyclopropyl)-2,2′-bipyrimidine] | 0.17 |
| Fc1cc([C@@H]2C[C@H]2c2cnc(-c3ncccn3)nc2)cc(-n2cccn2)c1F (single isomer, unassigned) [Example 254, trans-5-(2-(3,4-Difluoro-5-(1H-pyrazol-1-yl)phenyl)cyclopropyl)-2,2′-bipyrimidine] | 0.047 |
| O[C@H]1CCN(c2cc(C3CC3c3cnc(-c4ncccn4)nc3)ccc2F)C1 (single isomer, unassigned) [Example 66] | 0.23 |
| CNC(=O)c1cc(C2CC2c2cnc(-c3ncccn3)nc2)ccc1Cl (single isomer, unassigned) [Example 201, trans-5-(2-([2,2′-Bipyrimidin]-5-yl)cyclopropyl)-2-chloro-N-methylbenzamide] | 9 |
| Fc1ccc(C2CC2c2cnc(-c3ncccn3)nc2)cc1F (single isomer, unassigned) [Example 14, trans-5-(2-(3,4-Difluorophenyl)cyclopropyl)-2,2′-bipyrimidine] | 1 |
| CO[C@H]1CCN(c2cc(C3CC3c3cnc(-c4ncccn4)nc3)cc(Cl)c2F)C1 (single isomer, unassigned) [Example 116] | 0.09 |
| Fc1cc(C2CC2c2cnc(-c3ncccn3)nc2)cc(N2CC(c3ccccc3)C2)c1F (single isomer, unassigned) [Example 256, trans-5-(2-(3,4-Difluoro-5-(3-phenylazetidin-1-yl)phenyl)cyclopropyl)-2,2′-bipyrimidine] | 0.028 |
| CS(=O)(=O)N1CCN(c2cc(C3CC3c3cnc(-c4ncccn4)nc3)ccc2F)CC1 (single isomer, unassigned) [Example 41, trans-5-(2-(4-Fluoro-3-(4-(methylsulfonyl)piperazin-1-yl)phenyl)cyclopropyl)-2,2′-bipyrimidine] | 4 |
| COc1cc(F)cc(C2CC2c2cnc(-c3ncccn3)nc2)c1 (single isomer, unassigned) [Example 113, trans-5-(2-(3-Fluoro-5-methoxyphenyl)cyclopropyl)-2,2′-bipyrimidine] | 0.026 |
| O=C1CCCN1c1cc(C2CC2c2cnc(-c3ncccn3)nc2)ccc1F (single isomer, unassigned) [Example 197, trans-1-(5-(2-([2,2′-Bipyrimidin]-5-yl)cyclopropyl)-2-fluorophenyl)pyrrolidin-2-one] | 3 |
| COc1cc(C2CC2c2cnc(-c3ncccn3)nc2)cc(Cl)c1Cl (single isomer, unassigned) [Example 59, trans-5-(2-(3,4-Dichloro-5-methoxyphenyl)cyclopropyl)-2,2′-bipyrimidine] | 0.032 |
